Read-outs that look alike come from different tables or passages of the source.
Columns and labels:
Type in all cases: in vivo
[1] = system: Thanatephorus cucumeries (Rice); experiment: Foliar fungal disease test on plants: Thanatephorus cucumeries (Rice); conditions: one or two days before inoculation
[2] = system: Venturia inaequalis (Apples); experiment: Foliar fungal disease test on plants: Venturia inaequalis (Apples); conditions: one or two days before inoculation
[3] = system: Phytophthora infestans (Tomatoes); conditions: one or two days before inoculation
[4] = system: Erysiphe graminis tritici (Wheat); experiment: Foliar fungal disease test on plants: Erysiphe graminis tritici (Wheat); conditions: plants inoculated 24 hours before treatment
Septoria nodorum (Wheat) = experiment: Foliar fungal disease test on plants: Septoria nodorum (Wheat); conditions: one or two days before inoculation
[5] = system: Plasmopara viticola (Vines); experiment: Foliar fungal disease test on plants: Plasmopara viticola (Vines); conditions: one or two days before inoculation
[6] = system: Puccinia recondita (Wheat); experiment: Foliar fungal disease test on plants: Puccinia recondita (Wheat); conditions: plants inoculated with Puccinia recondita 48 hours before treatment
[7] = system: Pyricularia oryzae (Rice); conditions: one or two days before inoculation
[8] = 100 ppm a.i. foliar spray or root drench (approx. 40 ppm in dry soil)
[9] = 100 ppm a.i. foliar spray or root drench

SMILES	POCO (Percentage of Control) disease level, Thanatephorus cucumeries (Rice) [1, 8]	POCO (Percentage of Control) disease level, Venturia inaequalis (Apples) [2, 8]	POCO (Percentage of Control) disease level, Phytophthora infestans (Tomatoes) [3, 8]	POCO (Percentage of Control) disease level, Erysiphe graminis tritici (Wheat) [4, 8]	POCO (Percentage of Control) disease level, Septoria nodorum (Wheat) (Septoria nodorum (Wheat); [8])	POCO (Percentage of Control) disease level, Plasmopara viticola (Vines) [5, 8]	POCO (Percentage of Control) disease level, Puccinia recondita (Wheat) [6, 9]	POCO (Percentage of Control) disease level, Pyricularia oryzae (Rice) [7, 8]	POCO (Percentage of Control) disease level, Thanatephorus cucumeries (Rice) ([1]; 10 ppm foliar spray only)	POCO (Percentage of Control) disease level, Venturia inaequalis (Apples) ([2]; 10 ppm foliar spray only)	POCO (Percentage of Control) disease level, Phytophthora infestans (Tomatoes) ([3]; 10 ppm foliar spray only)	POCO (Percentage of Control) disease level, Erysiphe graminis tritici (Wheat) ([4]; 10 ppm foliar spray only)	POCO (Percentage of Control) disease level, Septoria nodorum (Wheat) (Septoria nodorum (Wheat); 10 ppm foliar spray only)	POCO (Percentage of Control) disease level, Plasmopara viticola (Vines) ([5]; 10 ppm foliar spray only)	POCO (Percentage of Control) disease level, Puccinia recondita (Wheat) ([6]; 10 ppm foliar spray only)	POCO (Percentage of Control) disease level, Pyricularia oryzae (Rice) ([7]; 10 ppm foliar spray only)
C=CCNC(=O)OCc1ccccc1C(=COC)C(=O)OC [20 (1)]	90 (90 and 94 = 60.1-100% disease present)	5 (5 = 3.1-5% disease present)	60 (60 = 30.1-60% disease present)	20 (20 and 24 = 10.1-20% disease present)	90 (90 and 94 = 60.1-100% disease present)	90 (90 and 94 = 60.1-100% disease present)	3+ (3 = 1.1-3% disease present)	20 (20 and 24 = 10.1-20% disease present)								
COC=C(C(=O)OC)c1ccccc1COC(=O)N1CCc2ccccc21 [5 (133)]									90 (90 and 94 = 60.1-100% disease present)	90 (90 and 94 = 60.1-100% disease present)	90 (90 and 94 = 60.1-100% disease present)	60 (60 = 30.1-60% disease present)	90 (90 and 94 = 60.1-100% disease present)	90 (90 and 94 = 60.1-100% disease present)	90+ (90 and 94 = 60.1-100% disease present)	90 (90 and 94 = 60.1-100% disease present)
COC=C(C(=O)OC)c1ccccc1COC(=O)N1CCCCC1 [2 (133)]	90 (90 and 94 = 60.1-100% disease present)	5 (5 = 3.1-5% disease present)	90 (90 and 94 = 60.1-100% disease present)	60 (60 = 30.1-60% disease present)	90 (90 and 94 = 60.1-100% disease present)	5 (5 = 3.1-5% disease present)	90+ (90 and 94 = 60.1-100% disease present)	20 (20 and 24 = 10.1-20% disease present)								
COC=C(C(=O)OC)c1ccccc1COC(=O)Nc1cc(F)ccc1F [27 (1)]									90 (90 and 94 = 60.1-100% disease present)	90 (90 and 94 = 60.1-100% disease present)	90 (90 and 94 = 60.1-100% disease present)	90 (90 and 94 = 60.1-100% disease present)	90 (90 and 94 = 60.1-100% disease present)	90 (90 and 94 = 60.1-100% disease present)	90+ (90 and 94 = 60.1-100% disease present)	30 (30 = 20.1-30% disease present)
